Test results reported in patent US11078202B2, “β-lactamase inhibitor and use thereof” (priority 2018, dated 2021).
Counter-ions that a name gives are not always drawn.

Key:
Type in all cases: cell-based
[1] = system: Acinetobacter baumannii XNWB 0007; test: MIC assay of test compounds combined with ceftazidime (8 μg/mL); conditions: ceftazidime 8 μg/mL fixed
Method in brief: (§1)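 Colonies from 20-24 h TSA plates (35±2 °C) → saline, OD600 0.1-0.15 → 300-fold dilution in 1.1×CAMHB → added to compound plus fixed antibiotic wells, growth and sterility controls included → 16-20 h at 35±2 °C → MIC by CLSI criteria.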

[2] = system: Klebsiella pneumoniae XNWB 0001; test: as above; conditions: ceftazidime 8 μg/mL fixed
Method in brief: as §1

[3] = system: Klebsiella pneumoniae XNWB 0002; test: as above; conditions: ceftazidime 8 μg/mL fixed
Method in brief: as §1

[4] = system: Klebsiella pneumoniae XNWB 0003; test: as above; conditions: ceftazidime 8 μg/mL fixed
Method in brief: as §1

[5] = system: Klebsiella pneumoniae XNWB 0004; test: as above; conditions: ceftazidime 8 μg/mL fixed
Method in brief: as §1

[6] = system: Klebsiella pneumoniae XNWB 0005; test: as above; conditions: ceftazidime 8 μg/mL fixed
Method in brief: as §1

[7] = system: Klebsiella pneumoniae XNWB 0006; test: as above; conditions: ceftazidime 8 μg/mL fixed
Method in brief: as §1

[8] = system: Pseudomonas aeruginosa XNWB 0008; test: as above; conditions: ceftazidime 8 μg/mL fixed
Method in brief: as §1

[9] = system: Acinetobacter baumannii XNWB 0007; test: MIC assay of test compounds combined with imipenem (4 μg/mL); conditions: imipenem 4 μg/mL fixed
Method in brief: as §1

[10] = system: Klebsiella pneumoniae XNWB 0001; test: as above; conditions: imipenem 4 μg/mL fixed
Method in brief: as §1

[11] = system: Klebsiella pneumoniae XNWB 0002; test: as above; conditions: imipenem 4 μg/mL fixed
Method in brief: as §1

[12] = system: Klebsiella pneumoniae XNWB 0003; test: as above; conditions: imipenem 4 μg/mL fixed
Method in brief: as §1

[13] = system: Klebsiella pneumoniae XNWB 0004; test: as above; conditions: imipenem 4 μg/mL fixed
Method in brief: as §1

[14] = system: Klebsiella pneumoniae XNWB 0005; test: as above; conditions: imipenem 4 μg/mL fixed
Method in brief: as §1

[15] = system: Klebsiella pneumoniae XNWB 0006; test: as above; conditions: imipenem 4 μg/mL fixed
Method in brief: as §1

[16] = system: Pseudomonas aeruginosa XNWB 0008; test: as above; conditions: imipenem 4 μg/mL fixed
Method in brief: as §1

| SMILES | The minimum concentration of test compounds combined with ceftazidime (8 μg/mL) for bacteriostasis [1] | The minimum concentration of test compounds combined with ceftazidime (8 μg/mL) for bacteriostasis [2] | The minimum concentration of test compounds combined with ceftazidime (8 μg/mL) for bacteriostasis [3] | The minimum concentration of test compounds combined with ceftazidime (8 μg/mL) for bacteriostasis [4] | The minimum concentration of test compounds combined with ceftazidime (8 μg/mL) for bacteriostasis [5] | The minimum concentration of test compounds combined with ceftazidime (8 μg/mL) for bacteriostasis [6] | The minimum concentration of test compounds combined with ceftazidime (8 μg/mL) for bacteriostasis [7] | The minimum concentration of test compounds combined with ceftazidime (8 μg/mL) for bacteriostasis [8] | The minimum concentration of test compounds combined with imipenem (4 μg/mL) for bacteriostasis [9] | The minimum concentration of test compounds combined with imipenem (4 μg/mL) for bacteriostasis [10] | The minimum concentration of test compounds combined with imipenem (4 μg/mL) for bacteriostasis [11] | The minimum concentration of test compounds combined with imipenem (4 μg/mL) for bacteriostasis [12] | The minimum concentration of test compounds combined with imipenem (4 μg/mL) for bacteriostasis [13] | The minimum concentration of test compounds combined with imipenem (4 μg/mL) for bacteriostasis [14] | The minimum concentration of test compounds combined with imipenem (4 μg/mL) for bacteriostasis [15] | The minimum concentration of test compounds combined with imipenem (4 μg/mL) for bacteriostasis [16] |
| --- | --- | --- | --- | --- | --- | --- | --- | --- | --- | --- | --- | --- | --- | --- | --- | --- |
| NCc1cc([C@@H]2CC3(CC3)[C@@H]3CN2C(=O)N3OS(=O)(=O)O)no1 [Example 35, (1R,4S)-4-(5-(aminomethyl)-isoxazol-3-yl)-6-oxo-5,7-diazaspiro[bicyclo[3.2.1]octane-2,1′-cyclopropan]-7-yl sulfate] | C (C: 16-128 μg/mL) | A (A: <8 μg/mL) | A (A: <8 μg/mL) | A (A: <8 μg/mL) | A (A: <8 μg/mL) | A (A: <8 μg/mL) | A (A: <8 μg/mL) | C (C: 16-128 μg/mL) | C (C: 16-128 μg/mL) | A (A: <8 μg/mL) | A (A: <8 μg/mL) | A (A: <8 μg/mL) | A (A: <8 μg/mL) | A (A: <8 μg/mL) | A (A: <8 μg/mL) | B (B: 8-16 μg/mL) |
| N=C(N)NCCc1cc([C@@H]2CC3(CC3)[C@@H]3CN2C(=O)N3OS(=O)(=O)O)no1 [Example 36, (1R,4S)-4-(5-(2-guanidinoethyl)isoxazol-3-yl)-6-oxo-5,7-diazaspiro[bicyclo[3.2.1]octane-2,1′-cyclopropan]-7-yl sulfate] | C (C: 16-128 μg/mL) | A (A: <8 μg/mL) | A (A: <8 μg/mL) | A (A: <8 μg/mL) | B (B: 8-16 μg/mL) | A (A: <8 μg/mL) | A (A: <8 μg/mL) | B (B: 8-16 μg/mL) | C (C: 16-128 μg/mL) | A (A: <8 μg/mL) | A (A: <8 μg/mL) | A (A: <8 μg/mL) | A (A: <8 μg/mL) | A (A: <8 μg/mL) | A (A: <8 μg/mL) | A (A: <8 μg/mL) |
